Laboratory results taken from patent US10689331B2, “IDO inhibitors” (Bristol-Myers Squibb Company, priority 2015, dated 2020).
pIC50: −log10 of the molar value.

Target: T1, human IDO1 (Homo sapiens, UniProt P14902)
T1 construct: expressed in transfected cells
Assay: HEK Human IDO-1 inhibition assay (kynurenine readout, Ehrlich reagent, absorbance 490 nm)
Format: cell-based
Conditions: human IDO1/HEK293 cells, incubated 20 hours with compound; 500 nM reference standard = 100% inhibition
Method: HEK293 cells were transfected with a pCDNA-based mammalian expression vector harboring human IDO1 cDNA (NM 002164.2) by electroporation. They were cultured in medium (DMEM with 10% FBS) containing 1 mg/ml G418 for two weeks. Clones of HEK293 cells that stably expressed human IDO1 protein were selected and expanded for IDO inhibition assay.
The human IDO1/HEK293 cells were seeded at 10,000 cells per 50 uL per well with RPMI/phenol red free media contains 10% FBS in a 384-well black wall clear bottom tissue culture plate (Matrix Technologies LLC) 100 nL of certain concentration of compound was then added to each well using ECHO liquid handling systems. The cells were incubated for 20 hours in 37° C. incubator with 5% CO2.
The compound treatments were stopped by adding Trichloroacetic Acid (Sigma-Aldrich) to a final concentration at 0.2%. The cell plate was further incubated at 50° C. for 30 minute. The equal volume supernatant (20 uL) and 0.2% (w/v) Ehrlich reagent (4-dimethylaminobenzaldehyde, Sigma-Aldrich) in glacial acetic acid were mixed in a new clear bottom 384-well plate. This plate was then incubated at room temperature for 30 minute. The absorbance at 490 nm was measured on Envision plate reader. Compound IC50 values were calculated using the counts of 500 nM of a reference standard treatment as one hundred percent inhibition, and counts of no compound but DMSO treatment as zero percent inhibition.

T1 sequence (P14902 whole entry): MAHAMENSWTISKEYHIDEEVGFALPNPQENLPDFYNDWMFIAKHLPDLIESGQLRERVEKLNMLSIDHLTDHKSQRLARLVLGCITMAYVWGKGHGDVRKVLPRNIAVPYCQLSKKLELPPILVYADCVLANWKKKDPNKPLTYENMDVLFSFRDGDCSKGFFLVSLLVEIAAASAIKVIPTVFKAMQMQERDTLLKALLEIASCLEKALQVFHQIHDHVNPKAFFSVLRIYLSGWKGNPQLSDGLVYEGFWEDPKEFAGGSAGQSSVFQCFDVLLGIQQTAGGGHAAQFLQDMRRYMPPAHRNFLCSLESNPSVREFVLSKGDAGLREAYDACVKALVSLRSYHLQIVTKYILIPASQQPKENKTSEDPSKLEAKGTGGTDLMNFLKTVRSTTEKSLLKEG

Structure (SMILES)	pIC50
CC(C)CN(c1ccc(OCC(=O)O)cc1NC(=O)Nc1ccc(-c2cnco2)cc1)C1CCCCC1 [Example 14, 2-(4-(cyclohexyl(isobutyl)amino)-3-(3-(4-(oxazol-5-yl)phenyl)ureido)phenoxy)acetic acid]	≤ 7.00
CC(C)CN(c1ccc(OCC(=O)NCC(F)(F)F)cc1NC(=O)Nc1ccc(Cl)cc1F)C1CCCCC1 [Example 135, 2-(3-(3-(4-chloro-2-fluorophenyl)ureido)-4-(cyclohexyl(isobutyl)amino)phenoxy)-N-(2,2,2-trifluoroethyl)acetamide]	≤ 7.00
CC(C)CN(c1ccc(OC(C)C(=O)NS(=O)(=O)C2CC2)cc1NC(=O)Cc1ccc(Cl)c(F)c1)C1CCCCC1 (racemic) [Example 79, (±)-2-(3-(2-(4-chloro-3-fluorophenyl)acetamido)-4-(cyclohexyl(isobutyl)amino)phenoxy)-N-(cyclopropylsulfonyl) propanamide]	≤ 7.00
CCCN(Cc1ccccc1)c1ccc(OCC(=O)O)cc1NC(=O)Nc1ccc(OC(F)(F)F)cc1 [Example 160, 2-(4-(benzyl(propyl)amino)-3-(3-(4-(trifluoromethoxy)phenyl)ureido)phenoxy)acetic acid]	≤ 7.00
Cc1ccc(CC(=O)Nc2cc(OC(C)C(=O)NS(=O)(=O)C3CC3)ccc2N(CC(C)C)C2CCCCC2)cc1 (racemic) [Example 78, (±)-2-(4-(cyclohexyl(isobutyl)amino)-3-(2-(p-tolyl)acetamido)phenoxy)-N-(cyclopropylsulfonyl)propanamide]	> 7.00
CC(C)CN(c1ccc(OCC(=O)O)cc1NC(=O)Nc1ccc(F)c(F)c1)C1CCCCC1 [Example 31, 2-(4-(cyclohexyl(isobutyl)amino)-3-(3-(3,4-difluorophenyl)ureido)phenoxy)acetic acid]	> 7.00
CC(C)CN(c1ccc(OCC(=O)O)cc1NC(=O)Cc1ccc(F)cc1)C1CCCCC1 [Example 57, 2-(4-(cyclohexyl(isobutyl)amino)-3-(2-(4-fluorophenyl)acetamido)phenoxy)acetic acid]	≤ 7.00
CC(C)CN(c1ccc(OC(C)C(=O)NS(=O)(=O)C2CC2)cc1NC(=O)Nc1ccc(Cl)cc1F)C1CCCCC1 (racemic) [Example 70, (±)-2-(3-(3-(4-chloro-2-fluorophenyl)ureido)-4-(cyclohexyl(isobutyl)amino)phenoxy)-N-(cyclopropylsulfonyl) propanamide]	> 8.30
CC(C)CN(c1ccc(OC(C)C(=O)O)cc1Nc1nc2ccccc2o1)C1CCCCC1 (racemic) [Example 62, (±)-2-(3-(benzo[d]oxazol-2-ylamino)-4-(cyclohexyl (isobutyl)amino)phenoxy)propanoic acid]	≤ 7.00
CC(C)CN(c1ccc(OC(C)C(=O)O)cc1NC(=O)Cc1ccc(Cl)cc1F)C1CCCCC1 (racemic) [Example 73]	> 7.00
CC(C)CN(c1ccc(OCC(=O)O)cc1NC(=O)Nc1cc(Cl)ccc1F)C1CCCCC1 [Example 22, 2-(3-(3-(5-chloro-2-fluorophenyl)ureido)-4-(cyclohexyl(isobutyl)amino)phenoxy)acetic acid]	> 7.00
Cc1ccc(NC(=O)Nc2cc(OC(C)C(=O)O)ccc2N(CC(C)C)C2CCCCC2)cc1 (single isomer, unassigned) [Example 60-1, 2-(4-(cyclohexyl(isobutyl)amino)-3-(3-(p-tolyl)ureido)phenoxy)propanoic acid]	> 8.30
CC(C)CN(c1ccc(OCC(=O)O)cc1NC(=O)Nc1ccncc1)C1CCCCC1 [Example 5, 2-(4-(cyclohexyl(isobutyl)amino)-3-(3-(pyridin-4-yl)ureido)phenoxy)acetic acid]	≤ 7.00
C=C(C)CN(c1ccc(OC(C)C(=O)O)cc1NC(=O)Nc1ccc(C)cc1)C1CCOCC1 (racemic) [Example 140, (+/−)-2-(4-((2-methylallyl)(tetrahydro-2H-pyran-4-yl)amino)-3-(3-(p-tolyl)ureido)phenoxy)propanoic acid]	≤ 7.00
COCC(Oc1ccc(N(CC(C)C)C2CCCCC2)c(NC(=O)Nc2ccc(C)cc2)c1)C(=O)O (single isomer, unassigned) [Example 90-2, 2-(4-(cyclohexyl(isobutyl)amino)-3-(3-(p-tolyl)ureido)phenoxy)-3-methoxypropanoic acid]	> 7.00
CCC(Oc1ccc(N(CC(C)C)C2CCCCC2)c(NC(=O)Nc2ccc(C)cc2)c1)C(=O)O (single isomer, unassigned) [Example 82-2, 2-(4-(cyclohexyl(isobutyl)amino)-3-(3-(p-tolyl)ureido)phenoxy)butanoic acid]	> 7.00
C=C(C)CN(CCCC(F)(F)F)c1cc(F)c(OCC(=O)O)cc1NC(=O)Nc1ccc(Cl)cc1F [Example 113, 2-(5-(3-(4-chloro-2-fluorophenyl)ureido)-2-fluoro-4-((2-methylallyl)(4,4,4-trifluorobutyl)amino)phenoxy)acetic acid]	> 8.30
CC(C)CN(c1ccc(OC(C)C(=O)O)cc1NC(=O)Cc1ccc(F)cc1F)C1CCCCC1 (racemic) [Example 71, 2-(4-(cyclohexyl(isobutyl)amino)-3-(2-(2,4-difluorophenyl)acet-amido)phenoxy)propanoic acid]	> 7.00
Cc1cc(NC(=O)Nc2cc(OCC(=O)O)ccc2N(CC(C)C)C2CCCCC2)on1 [Example 4, 2-(4-(cyclohexyl(isobutyl)amino)-3-(3-(3-methylisoxazol-5-yl)ureido)phenoxy)acetic acid]	> 7.00
C=C(C)CN(c1ccc(OCC(=O)O)cc1NC(=O)Nc1ccc(Cl)cc1F)C1CCOCC1 [Example 137, 2-(3-(3-(4-chloro-2-fluorophenyl)ureido)-4-((2-methylallyl)(tetrahydro-2H-pyran-4-yl)amino)phenoxy)acetic acid]	> 7.00
CC(C)CN(c1ccc(OCC(=O)O)cc1NC(=O)Nc1ccc(C(F)(F)F)c(F)c1)C1CCCCC1 [Example 35, 2-(4-(cyclohexyl(isobutyl)amino)-3-(3-(3-fluoro-4-(trifluoromethyl)phenyl)ureido)phenoxy)acetic acid]	≤ 7.00
CC(C)CN(c1ccc(OC(C)C(=O)O)cc1NC(=O)Nc1ccc(Cl)cc1F)C1CCCCC1 (single isomer, unassigned) [Example 61-2, 2-(3-(3-(4-chloro-2-fluorophenyl)ureido)-4-(cyclo-hexyl(isobutyl)amino)phenoxy)propanoic acid]	> 8.30
CC(C)CN(c1ccc(OCC(=O)O)cc1NC(=O)Nc1nncs1)C1CCCCC1 [Example 6, 2-(3-(3-(1,3,4-thiadiazol-2-yl)ureido)-4-(cyclohexyl(isobutyl)amino)phenoxy)acetic acid]	≤ 7.00
CC(C)CN(c1ccc(OCC(=O)O)cc1NC(=O)Nc1ccc(Oc2ccccc2)cc1)C1CCCCC1 [Example 13, 2-(4-(cyclohexyl(isobutyl)amino)-3-(3-(4-phenoxyphenyl)ureido)phenoxy)acetic acid]	≤ 7.00
CC(C)CN(c1ccc(OCC(=O)NS(=O)(=O)c2cccs2)cc1NC(=O)Nc1ccc(Cl)cc1F)C1CCCCC1 [Example 49]	> 8.30
Cc1ccc(NC(=O)Nc2cc(OC(C)C(=O)O)ccc2N(CC(C)C)C2CCCCC2)c(F)c1 (single isomer, unassigned) [Example 65-1, 2-(4-(cyclohexyl(isobutyl)amino)-3-(3-(2-fluoro-4-methylphenyl)ureido)phenoxy)propanoic acid]	> 7.00
